# Reference: patent US20150104519A1, “Pharmaceutical Compositions” (Alpharma Pharmaceuticals LLC, priority 2007, published 2015)
# Structures can show the parent of a compound that is named as a salt.
# Columns and labels:
# [1] = in comparison to a 15 mg dose of hydrocodone
# [2] = cited from earlier work
# morphine effects = settings: three 100-mg doses of naltrexone; MS Contin; cited from earlier work
# mu over delta sites = settings: cited from earlier work
Compound,"Equianalgesic dose, Calculated Dose [1] [mg]",other results
"COc1ccc2c3c1OC1C(=O)CC[C@H]4[C@@H](C2)N(C)CC[C@]314 (stereo partly drawn) [Hydrocodone, 4,5-epoxy-3-methoxy-17-methylmorphinan-6-one]",15.0,–
CCC(=O)C(CC(C)N(C)C)(c1ccccc1)c1ccccc1 (stereo not drawn) [Methadone],9.0,–
CN1CC[C@]23CCCC[C@H]2[C@H]1Cc1ccc(O)cc13 [Levorphanol],1.8,–
Meperidine,135.0,–
COc1ccc2c3c1O[C@H]1[C@@H](O)C=C[C@H]4[C@@H](C2)N(C)CC[C@@]341 [Codeine],90.0,–
"O=C1CC[C@@]2(O)[C@H]3Cc4ccc(O)c5c4[C@@]2(CCN3CC2CC2)[C@H]1O5 [hydrochloride salt of naltrexone, Naltrexone HCl]",–,soluble in water [2]: about 100 mg/cc
O=C1CC[C@@]2(O)[C@H]3Cc4ccc(O)c5c4[C@@]2(CCN3CC2CC2)[C@H]1O5 [naltrexone],–,"blockade of morphine effects (morphine effects): blocked; blocking action, site preference (mu over delta sites): strong preferential blocking action against mu over delta sites"
"COc1ccc2c3c1OC1C(=O)CC[C@@]4(O)[C@@H](C2)N(C)CC[C@]314 (stereo partly drawn) [Oxycodone, 4,5-epoxy-14-hydroxy-3-methoxy-17-methylmorphinan-6-one]",13.5,–
